Laboratory results from article PMC12040169 (PLOS Biology, 2025).

Experiment: in vitro
Conditions: human, hela cells, % viability

| SMILES | viability at 28.5 h, 10 µM |
| --- | --- |
| NCCCCCCNC(=O)c1c(O)c2ccccc2oc1=O [CBK261071] | 97.9% |
| Cc1ccc(C2(O)CCN(Cc3cn(C)nc3C)CC2)cc1 [CBK282753] | 107% |
| O=C(CCc1ccccc1)N1CCCC1c1n[nH]cc1-c1ccncc1 (stereo not drawn) [CBK283436] | 91.4% |
| O=S(=O)(c1ccc(Br)cc1F)N1CCCCC1CO (stereo not drawn) [CBK051302] | 92.9% |
| Cc1cc(C(=O)N2CCC(C(=O)NC(c3ccccc3)c3ccc4ccccc4n3)CC2)no1 (stereo not drawn) [CBK059641] | 100% |
| COc1ncc(-c2nccnc2NCc2cccnc2)c(OC)n1 [CBK036817] | 101% |
| O=C(N/N=C/c1cc(O)c(Br)cc1Br)c1ccncc1 [CBK262297] | 76.8% |
| CC(C)(C)OC(=O)NCc1ccc(-c2cc(N3CCN(C(=O)c4ccco4)CC3)ncn2)cc1 [CBK091107] | 98.3% |
| CC(=O)c1c(C)[n+]([O-])c2cc(Cl)c(Cl)cc2[n+]1[O-] [CBK265017] | 108% |
| CCCc1cc(-c2c(Cl)cccc2Cl)[nH]n1 [CBK107818] | 91.2% |
| O=C(CCc1nc(-c2ccccc2F)no1)Nc1ccccc1[N+](=O)[O-] [CBK268341] | 86.9% |
| CC1(C)C=Cc2cc(/C(N)=N/O)ccc2O1 [CBK006095] | 96.2% |
| Clc1ccc(Cl)c(N/N=C(\c2ccccc2)c2cccnc2)c1 [CBK015932C] | 96.9% |
| O=C1CCc2cc(S(=O)(=O)NC(c3ccccc3)c3ccccc3)ccc2N1 [CBK286367] | 93.4% |
| Cc1ccccc1N1CCN(Cc2cccc(C(=O)O)c2)CC1 [CBK286890] | 90.8% |
| CCOC(=O)c1sc(-c2ccccc2)nc1OCc1ccccc1Cl [CBK067727] | 95.8% |
| CCOC(=O)c1c(NC(=O)C2CCCCC2C(=O)O)sc(C)c1C (stereo not drawn) [CBK265469] | 99.2% |
| Nc1ncc(-c2cccc3ccccc23)nc1Nc1ccc2[nH]ccc2c1 [CBK063659] | 90.9% |
| O=c1[nH]c(-c2ccccc2)nc2c1CN(Cc1cccs1)CC2 [CBK282330] | 87.1% |
| Cc1ccc(S(=O)(=O)NC2c3cccc4cccc(c34)C2Sc2ccccn2)cc1 (stereo not drawn) [CBK265840] | 91.6% |
| O=C(Cn1cc(C(=O)COc2ccccc2)c2ccccc21)Nc1ccccc1 [CBK267653] | 110% |
| CSc1ccc(NS(=O)(=O)c2ccc(NC(C)=O)c(Cl)c2)cc1 [CBK043566] | 108% |
| COc1ccc(-c2cc(C(=O)NCc3nc4ccccc4[nH]3)cnc2-c2ccccc2)cn1 [CBK037579] | 99.6% |

| SMILES | viability at 28.5 h, 10 µM |
| --- | --- |
| Cc1cc(NC(=O)c2ccccc2)n(-c2nc(C)c(C)c(=O)[nH]2)n1 [CBK287655] | 105% |
| O=C1CCCN1CCCNc1nccnc1-c1cccnc1 [CBK089246] | 110% |
| Cc1ccc(-c2noc([C@@H]3Cc4[nH]cnc4CN3C(=O)CCC(=O)O)n2)cc1 [CBK288958] | 96.3% |
| COc1ccc(CNC(=O)CSc2cnn[nH]2)cc1 [CBK269881] | 85.6% |
| CCOc1ccc(-c2cnc(SCC(=O)O)nc2N)cc1 [CBK269928] | 105% |
| Cc1nnc(CSc2nnc(-c3ccc(Cl)cc3)[nH]2)o1 [CBK270241] | 102% |
| COC(=O)c1c(NC(=O)C2CC=CCC2C(=O)O)sc2c1CCC(c1ccccc1)C2 (stereo not drawn) [CBK263683] | 94.8% |
| Cc1ccc(S(=O)(=O)Nc2cccc(C(=O)O)c2)cc1 [CBK038891] | 84.1% |
| CN(c1cc(F)ccc1[N+](=O)[O-])S(C)(=O)=O [CBK001365] | 82.1% |
| O=C(Nc1ccc2cc(Br)cnc2n1)C(F)(F)F [CBK063313] | 90% |
| CC1COCC(C)N1c1ccc2nnc(-c3ccc(C(F)(F)F)cc3)n2n1 (stereo not drawn) [CBK009548] | 81.7% |
| O=C(c1nc2ccccc2s1)C1CCNCC1 [CBK285397] | 103% |
| CS(=O)(=O)c1ccc(-c2ccc3c(c2)C(=O)NC(C2CCN(C(=O)OCc4ccccc4)CC2)O3)cc1 (stereo not drawn) [CBK156087] | 98.1% |
| OCC1OC(n2cnc3c(Oc4ccccc4)ncnc32)CC1O (stereo not drawn) [CBK201181] | 91.5% |
| Cn1c(=O)[nH]c(=O)c2c1nc(SCCN1CCOCC1)n2CCCc1ccccc1 [CBK269234] | 95.5% |
| CC(=O)Nc1cccc(NC(=O)c2ccc(CN3CCCCC3)cc2)c1 [CBK295596] | 103% |
| COc1ccc(/C=C/C(=O)O)cc1S(=O)(=O)N1CCCC1 [CBK058388] | 93.5% |
| CN(C)C(=O)Cn1cccc2cc(-c3ccc(F)cc3)nc1-2 [CBK285349] | 105% |
| Cc1cc2ccccc2n2c(=O)n(CC(=O)N3CCCCC3)nc12 [CBK283878] | 85.8% |
| O=C(O)CCCN1C(=O)/C(=C\c2ccccn2)SC1=S [CBK264552] | 92.4% |
| O=C(Oc1ccccc1)c1cc(S(=O)(=O)N2CCOCC2)c(Cl)cc1Cl [CBK269656] | 83.5% |
| O=c1c(C(F)(F)F)cccn1Cc1ccccc1 [CBK023620] | 107% |
| CC1CCc2c(C(=O)N3CCC4(C3)NC(=O)NC4=O)csc2C1 (stereo not drawn) [CBK304290] | 76.8% |

| SMILES | viability at 28.5 h, 10 µM |
| --- | --- |
| Cc1ccc(C)n1-c1ccc(CC(=O)O)cc1 [CBK116374] | 92.2% |
| Cc1ccccc1Nc1nc(N)nc(CN2CCCC(C(F)(F)F)C2)n1 (stereo not drawn) [CBK305073] | 105% |
| CCOC(=O)Cn1c(CCC(=O)O)ccc1-c1ccc(F)cc1 [CBK265916] | 97.8% |
| O=C(O)c1cc(-c2ccco2)nc2ccccc12 [CBK027882] | 98.3% |
| Cc1cc(=O)n(CC(=O)NC(C)c2ccccn2)c2ccccc12 (stereo not drawn) [CBK281820] | 96.3% |
| O=C1CC(c2ccco2)Cc2c1cnn2-c1nc2ccccc2s1 (stereo not drawn) [CBK269292] | 81.4% |
| O=S(=O)(Nc1cccc(Cl)c1)c1ccc(Cl)c(Cl)c1 [CBK044636] | 79.3% |
| CC(SC1CCc2ccccc2NC1=O)C(=O)O (stereo not drawn) [CBK286652] | 87.1% |
| c1coc(C2N3CCC4(CC3)c3[nH]c5ccccc5c3CCN24)c1 (stereo not drawn) [CBK282862] | 112% |
| COc1ccc2c(c1OC)C(=O)N(c1cccc([N+](=O)[O-])c1)C2 [CBK115318] | 99.5% |
| NS(=O)(=O)c1ccc(CCNC(=O)c2ccc(-c3ccccc3)nc2NCCc2ccccn2)cc1 [CBK076616] | 111% |
| COc1cccc(NC(=O)c2cnc(-c3ccccc3)c(-c3cccnc3)c2)c1OC [CBK037487] | 92.8% |
| C[N+](C)(C)Cc1ccccc1 [CBK011977I] | 109% |
| Cc1cc(C)c(C)c(S(=O)(=O)N(CCO)CCO)c1C [CBK269082] | 90.5% |
| O=C(NCc1nnc(-c2cccs2)o1)C1(c2ccccc2)CC1 [CBK284635] | 96.2% |
| NC(=O)c1ccc(SCC(=O)O)c([N+](=O)[O-])c1 [CBK034310] | 97.7% |
| O=C(NCc1ccc(F)cc1)Nc1ccccc1F [CBK115584] | 98.9% |
| O=S(=O)(c1c(F)cccc1F)N1CCN(Cc2ccc3c(c2)OCO3)CC1 [CBK074600] | 91.5% |
| Cc1nc(-c2ccc(CNC(=O)c3cc(=O)[nH]c4ccccc34)o2)cs1 [CBK238261] | 79.2% |
| CN(Cc1ccc(Br)cc1Cl)C(=O)c1cn[nH]c1C1CCNC1 (stereo not drawn) [CBK304785] | 93.5% |
| N#CC1=C(N)N2C(=C(C#N)C13CCN(Cc1ccccc1)CC3)Nc1ccccc12 [CBK267241] | 108% |
| CCCCS(=O)(=O)N1CCN(CCc2ccccc2)CC1 [CBK270316] | 87.3% |
| Nc1ncc(-c2cccc(O)c2)nc1N1CCC(C(=O)O)CC1 [CBK063405] | 85.3% |

| SMILES | viability at 28.5 h, 10 µM |
| --- | --- |
| CSCc1ccc(C(=O)Nc2cc(C(=O)O)ccc2C)cc1 [CBK297107] | 93% |
| CC(=O)N(C)c1nc(-c2cccc(N(C)C)c2)ccc1C(=O)Nc1ccc(C(F)(F)F)cc1 [CBK076623] | 98.5% |
| CCCN1CCC(NC(C)CCCC(C)(C)O)CC1 (stereo not drawn) [CBK261932] | 99.3% |
| CCc1cc2c3c(c(=O)oc2cc1OCc1cc(C(=O)O)oc1C)CCCC3 [CBK264402] | 98.8% |
| O=C1/C(=C2/Sc3ccccc3N2CCCS(=O)(=O)O)SC(=S)N1c1ccccc1 [CBK260954G] | 94.5% |
| CS(=O)(=O)N1CCC(C(=O)NC(c2ccccc2)c2cnccn2)CC1 (stereo not drawn) [CBK059901] | 105% |
| CC(=O)NC1(CC(=O)N2CC[C@H]3NC(=O)COc4ccccc4C/C=C/C[C@H]3C2)CCCCC1 [CBK292117] | 91.3% |
| C=CCn1c2ccccc2c2nnc(SCc3ccc([N+](=O)[O-])cc3)nc21 [CBK265630] | 92.5% |
| COc1ccc(-c2nc(-c3cccc(F)c3)cnc2N)cc1OC [CBK063948] | 98.4% |
| COC(=O)c1ccsc1NS(=O)(=O)c1ccccc1 [CBK026667] | 88.7% |
| O=C(O)Cc1nnnn1-c1ccccc1 [CBK262984] | 102% |
| CC(C)[C@@H](CO)Nc1nc(-c2occc2C=O)cnc1N [CBK063733] | 102% |
| O=C(Nc1cccc(C(=O)O)c1)/C(=C\c1ccco1)NC(=O)c1ccc(Br)cc1 [CBK263707] | 91.3% |
| Cc1nc2c(C)cccc2cc1C(=O)NCCCc1ccccn1 [CBK282148] | 82.8% |
| Cc1ccc(S(=O)(=O)NCCCN2CCOCC2)cc1C [CBK262934] | 96.6% |
| O=C(O)CNC(=O)/C(=C\c1ccc(F)cc1)NC(=O)c1ccco1 [CBK263718] | 96.4% |
| COc1ccc(N2C(=O)CC(NNC(=O)CNC(C)=O)C2=O)cc1 (stereo not drawn) [CBK267228] | 87.7% |
| O=C1COc2ccccc2C/C=C/CC2(CCN(C(=O)Cn3cccn3)CC2)C(=O)NCCN1 [CBK292003] | 117% |
| Cc1ccc(NS(=O)(=O)c2ccc(OC(F)(F)F)cc2)c(CO)c1 [CBK043267] | 86.8% |
| CCCCC1C(=O)N(C)CCN1C(=O)NCc1cn2ccc(C)cc2n1 (stereo not drawn) [CBK306648] | 91.8% |
| CC(=O)c1cc2c(cc1NC(=O)CSc1ccccn1)OCO2 [CBK266225] | 94.2% |
